According to US9556165B2 (priority 2012, dated 2017):
Converted amounts (≈) assume the structure as drawn. Where two headings read alike, the source gives them in different places.

What was measured:
Format in all cases: cell-based
Bacteria = experiment: MIC determination in combination with β-lactamase inhibitors (constant 4 μg/mL)
M. morganii 126/3048 = experiment: MIC determination, broth microdilution (CLSI); conditions: for MIC: Morganella morganii, 126/3048, strain 5
C. freundii K21/3034 = experiment: MIC determination, broth microdilution (CLSI); conditions: for MIC: Citrobacter freundii, K21/3034, strain 4
E. coli J62-TEM-3 = experiment: MIC determination, broth microdilution (CLSI); conditions: broth microdilution; for MIC: Escherichia coli, J62TEM3, read-out: MIC strain 18 (E. coli J62-TEM-3), strain 18
C. perfringens DSM756 = experiment: microbe, parasite or virus in culture; conditions: broth microdilution; for MIC: Clostridium perfringens, DSM756, read-out: MIC strain 16 (C. perfringens DSM756), strain 16
K. pneumoniae 60 = experiment: MIC determination, broth microdilution (CLSI); conditions: for MIC: Klebsiella pneumoniae, 60, strain 2
P. aeruginosa PAO1 = experiment: MIC determination, broth microdilution (CLSI); conditions: Pseudomonas aeruginosa, PAO1, strain 6
E. cloacae 34654 = experiment: MIC determination, broth microdilution (CLSI); conditions: for MIC: Enterobacter cloacae, 34654, strain 3
[1] = test system: P. aeruginosa 2297 (AmpC wt); experiment: MIC determination, broth microdilution (CLSI); conditions: Pseudomonas aeruginosa, strain 7
A. baumannii ATCC15308 = experiment: MIC determination, broth microdilution (CLSI); conditions: for MIC: Acinetobacter baumannii, ATCC15308, strain 9
E. coli J62 = experiment: MIC determination, broth microdilution (CLSI); conditions: broth microdilution; for MIC: Escherichia coli, J62, strain 17, read-out: MIC strain 17 (E. coli J62)
H. influenzae ATCC 49247 = experiment: MIC determination, broth microdilution (CLSI); conditions: broth microdilution; for MIC: Haemophilus influenzae, ATCC49247, strain 12, read-out: MIC strain 12 (H. influenzae ATCC 49247)
[2] = test system: P. aeruginosa 2297-con (AmpC derepressed); experiment: MIC determination, broth microdilution (CLSI); conditions: Pseudomonas aeruginosa, read-out: strain 8 MIC, strain 8
E. coli ATCC25922 = experiment: MIC determination, broth microdilution (CLSI); conditions: for MIC: Escherichia coli, ATCC25922, strain 1
S. aureus 133 = experiment: MIC determination, broth microdilution (CLSI)
S. maltophilia ICB7569 = experiment: MIC determination, broth microdilution (CLSI); conditions: for MIC: Stenotrophomonas maltophilia, ICB7569, strain 10
S. pneumoniae 113 = experiment: MIC determination, broth microdilution (CLSI); conditions: broth microdilution; for MIC: Streptococcus pneumoniae, 113, strain 13, read-out: MIC strain 13 (S. pneumoniae 113)
B. fragilis 6688 = experiment: MIC determination, broth microdilution (CLSI); conditions: broth microdilution; for MIC: Bacteroides fragilis, 6688, strain 15, read-out: MIC strain 15 (B. fragilis 6688)
[3] = Staphylococcus aureus, 133, strain 11, read-out: strain 11 MIC
[4] = Staphylococcus aureus, 133, strain 14, broth microdilution, read-out: MIC strain 14 (S. aureus 133)

Row | Compound | MIC strain 19 (E. coli J62-TEM-3 + 4 μg/mL clavulanic acid) (Bacteria) [mg/L] | MIC strain 20 (E. coli J62-TEM-3 + 4 μg/mL sulbactam) (Bacteria) [mg/L] | MIC strain 21 (E. coli J62-TEM-3 + 4 μg/mL tazobactam) (Bacteria) [mg/L] | MIC (M. morganii 126/3048) [µg/mL] | MIC (C. freundii K21/3034) [µg/mL] | MIC (E. coli J62-TEM-3) [µg/mL] | MIC (C. perfringens DSM756) [µg/mL] | MIC (K. pneumoniae 60) [µg/mL] | MIC (P. aeruginosa PAO1) [µg/mL] | MIC (E. cloacae 34654) [µg/mL] | MIC [1] [µg/mL] | MIC (A. baumannii ATCC15308) [µg/mL] | MIC (E. coli J62) [µg/mL] | MIC (H. influenzae ATCC 49247) [µg/mL] | MIC [2] [µg/mL] | MIC (E. coli ATCC25922) [µg/mL] | MIC (S. aureus 133; [4]) [µg/mL] | MIC (S. maltophilia ICB7569) [µg/mL] | MIC (S. pneumoniae 113) [µg/mL] | MIC (B. fragilis 6688) [µg/mL] | also measured
1 | CC1(C)[C@H](NC(=O)/C(=N\OCCOc2ccc(C(=N)NCCNC(=N)N)cc2)c2csc(N)n2)C(=O)N1OS(=O)(=O)O [Example 78, (2Z)-2-(2-Amino-1,3-thiazol-4-yl)-2-[(2-{4-[N-(2-carbamimidamidoethyl)carbamimidoyl]phenoxy}ethoxy)imino]-N-[(3S)-2,2-dimethyl-4-oxo-1-(sulfooxy)azetidin-3-yl]ethanamide] | 0.25 | 0.5 | 0.5 | 0.5 (≈ 0.798 µM) | 0.25 (≈ 0.399 µM) | 4 (≈ 6.38 µM) | 2 (≈ 3.19 µM) | 0.25 (≈ 0.399 µM) | 4 (≈ 6.38 µM) | 0.5 (≈ 0.798 µM) | 4 (≈ 6.38 µM) | 0.25 (≈ 0.399 µM) | 0.5 (≈ 0.798 µM) | ≤ 0.063 | 2 (≈ 3.19 µM) | 0.25 (≈ 0.399 µM) | 1 (≈ 1.6 µM) | 8 (≈ 12.8 µM) | ≤ 0.063 | 4 (≈ 6.38 µM) | MIC (S. aureus 133; [3]): ≤ 0.063 µg/mL
2 | CC1(C)[C@H](NC(=O)/C(=N\OCCOc2ccc(C(=N)N)cc2)c2csc(N)n2)C(=O)N1OS(=O)(=O)O [Example 41, (2Z)-2-(2-Amino-1,3-thiazol-4-yl)-2-{[2-(4-carbamimidoylphenoxy)ethoxy]imino}-N-[(3S)-2,2-dimethyl-4-oxo-1-(sulfooxy)azetidin-3-yl]ethanamide] | 0.25 | 0.25 | 0.25 | 0.25 (≈ 0.462 µM) | 0.125 (≈ 0.231 µM) | 8 (≈ 14.8 µM) | 1 (≈ 1.85 µM) | 0.5 (≈ 0.923 µM) | 4 (≈ 7.39 µM) | 0.25 (≈ 0.462 µM) | 4 (≈ 7.39 µM) | 1 (≈ 1.85 µM) | 0.25 (≈ 0.462 µM) | ≤ 0.063 | 4 (≈ 7.39 µM) | 0.25 (≈ 0.462 µM) | 4 (≈ 7.39 µM) | 4 (≈ 7.39 µM) | ≤ 0.063 | 2 (≈ 3.69 µM) | MIC (S. aureus 133; [3]): ≤ 0.063 µg/mL
3 | CC(=N)N1CC[C@H](NC(=N)c2ccc(OCCO/N=C(\C(=O)N[C@@H]3C(=O)N(OS(=O)(=O)O)C3(C)C)c3csc(N)n3)cc2)C1 [Example 43, (2Z)-2-(2-Amino-1,3-thiazol-4-yl)-N-[(3S)-2,2-dimethyl-4-oxo-1-(sulfooxy)azetidin-3-yl]-2-{[2-(4-{N-[(3S)-1-ethanimidoylpyrrolidin-3-yl]carbamimidoyl}phenoxy)ethoxy]-imino}ethanamide] | 0.25 | 0.5 | 0.5 | 1 (≈ 1.53 µM) | 0.25 (≈ 0.384 µM) | 8 (≈ 12.3 µM) | 2 (≈ 3.07 µM) | 0.5 (≈ 0.767 µM) | 8 (≈ 12.3 µM) | 1 (≈ 1.53 µM) | 8 (≈ 12.3 µM) | 0.5 (≈ 0.767 µM) | 0.5 (≈ 0.767 µM) | 0.125 (≈ 0.192 µM) | 8 (≈ 12.3 µM) | 0.5 (≈ 0.767 µM) | 4 (≈ 6.14 µM) | 32 (≈ 49.1 µM) | ≤ 0.063 | 8 (≈ 12.3 µM) | 
4 | C[C@H]1[C@H](NC(=O)/C(=N\OCCOc2ccc(C(=N)N)cc2)c2nc(N)sc2Cl)C(=O)N1S(=O)(=O)O [Example 61, (2S,3S)-3-{[(2Z)-2-(2-Amino-5-chloro-1,3-thiazol-4-yl)-2-{[2-(4-carbamimidoylphenoxy)ethoxy]imino}acetyl]amino}-2-methyl-4-oxoazetidine-1-sulfonic acid] | 2 | 2 | 2 | 0.5 (≈ 0.916 µM) | 1 (≈ 1.83 µM) | 8 (≈ 14.7 µM) | 8 (≈ 14.7 µM) | 2 (≈ 3.66 µM) | 2 (≈ 3.66 µM) | 2 (≈ 3.66 µM) | 2 (≈ 3.66 µM) | 2 (≈ 3.66 µM) | 2 (≈ 3.66 µM) | 0.25 (≈ 0.458 µM) | 16 (≈ 29.3 µM) | 2 (≈ 3.66 µM) | 8 (≈ 14.7 µM) | 16 (≈ 29.3 µM) | ≤ 0.063 | 8 (≈ 14.7 µM) | MIC (S. aureus 133; [3]): ≤ 0.063 µg/mL
5 | CC1(C)[C@H](NC(=O)/C(=N\OC(CCO)COc2ccc(C(=N)N)cc2)c2csc(N)n2)C(=O)N1OS(=O)(=O)O (single isomer, unassigned) [Example 81A] | 8 | 8 | 8 | 8 (≈ 13.7 µM) | 4 (≈ 6.83 µM) |  | 8 (≈ 13.7 µM) | 8 (≈ 13.7 µM) |  |  |  | 8 (≈ 13.7 µM) | 8 (≈ 13.7 µM) | 2 (≈ 3.42 µM) |  | 4 (≈ 6.83 µM) | 32 (≈ 54.6 µM) | 16 (≈ 27.3 µM) | 0.25 (≈ 0.427 µM) | 16 (≈ 27.3 µM) | MIC strain 18 (E. coli J62-TEM-3) (E. coli J62-TEM-3): 32 mg/L (≈ 54.6 µM); strain 3 MIC (E. cloacae 34654): 16 mg/L
6 | CC1(C)[C@H](NC(=O)/C(=N\OC(COc2ccc(C(=N)N)cc2)CC(=O)O)c2csc(N)n2)C(=O)N1OS(=O)(=O)O (mixture of isomers) [Example 46, 3-({[(1Z)-1-(2-Amino-1,3-thiazol-4-yl)-2-{[(3S)-2,2-dimethyl-4-oxo-1-(sulfooxy)azetidin-3-yl]amino}-2-oxoethylidene]amino}oxy)-4-(4-carbamimidoylphenoxy)butanoic acid] | 1 | 1 | 1 | 1 | 1 | 16 | 4 | 1 | 8 | 2 | 32 | 16 | 2 | 0.25 | 32 | 2 |  | 8 | 1 | 32 | 
7 | CC1(C)[C@H](NC(=O)/C(=N\OC(CCO)COc2ccc(C(=N)N)cc2)c2csc(N)n2)C(=O)N1OS(=O)(=O)O (single isomer, unassigned) [Example 81B] | 4 | 4 | 4 |  |  |  |  |  |  |  |  |  |  |  |  |  |  |  |  |  | strain 5 MIC (M. morganii 126/3048; strain 5): 4 mg/L; strain 4 MIC (C. freundii K21/3034; strain 4): 2 mg/L; MIC strain 18 (E. coli J62-TEM-3) (E. coli J62-TEM-3): 4 mg/L (≈ 6.83 µM); MIC strain 16 (C. perfringens DSM756) (C. perfringens DSM756; strain 16): 4 mg/L (≈ 6.83 µM); strain 2 MIC (K. pneumoniae 60; strain 2): 4 mg/L; strain 3 MIC (E. cloacae 34654): 4 mg/L; strain 9 MIC (A. baumannii ATCC15308; strain 9): 8 mg/L; MIC strain 17 (E. coli J62) (E. coli J62; strain 17): 4 mg/L (≈ 6.83 µM); MIC strain 12 (H. influenzae ATCC 49247) (H. influenzae ATCC 49247; strain 12): 2 mg/L (≈ 3.42 µM); strain 1 MIC (E. coli ATCC25922; strain 1): 2 mg/L; MIC strain 14 (S. aureus 133) (S. aureus 133; strain 14, broth microdilution): 32 mg/L (≈ 54.6 µM); strain 10 MIC (S. maltophilia ICB7569; strain 10): 16 mg/L; MIC strain 13 (S. pneumoniae 113) (S. pneumoniae 113; strain 13): 0.125 mg/L (≈ 0.213 µM); MIC strain 15 (B. fragilis 6688) (B. fragilis 6688; strain 15): 16 mg/L (≈ 27.3 µM)
8 | CC1(C)[C@H](NC(=O)/C(=N\OCCOc2ccc(C(=N)N)cc2)c2csc(N)n2)C(=O)N1OCS(=O)(=O)O [Example 90] | 0.5 | 0.5 | 1 | 0.5 (≈ 0.9 µM) | 0.25 (≈ 0.45 µM) | 0.5 (≈ 0.9 µM) | 16 (≈ 28.8 µM) |  | 32 (≈ 57.6 µM) | 1 (≈ 1.8 µM) | 32 (≈ 57.6 µM) |  | 1 (≈ 1.8 µM) | 0.5 (≈ 0.9 µM) | 32 (≈ 57.6 µM) | 0.5 (≈ 0.9 µM) |  | 4 (≈ 7.2 µM) | 0.5 (≈ 0.9 µM) | 4 (≈ 7.2 µM) | MIC (S. aureus 133; [3]): 0.5 µg/mL (≈ 0.9 µM)
